Test results as given in PubChem BioAssay (NCI).
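Results reflect a 48-hour exposure of cells in 96-well plates to compound at five concentrations. Abbreviation: GI50, concentration required for 50% inhibition of growth. TGI: concentration producing complete growth inhibition.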

Key:
Experiment in all cases: NCI anticancer screen, dose series, 48 h
EKVX NSCLC = tested on: EKVX NSCLC
SR leukemia = tested on: SR leukemia
SF-539 CNS = tested on: SF-539 CNS
MDA-MB-231 breast = tested on: MDA-MB-231 breast
RPMI-8226 leukemia = tested on: RPMI-8226 leukemia
HS 578T breast = tested on: HS 578T breast
SK-MEL-2 melanoma = tested on: SK-MEL-2 melanoma
NCI-H522 lung = tested on: NCI-H522 lung
UO-31 renal = tested on: UO-31 renal
OVCAR-4 ovarian = tested on: OVCAR-4 ovarian
MDA-MB-435 = tested on: MDA-MB-435
PC-3 prostate = tested on: PC-3 prostate
SK-MEL-28 melanoma = tested on: SK-MEL-28 melanoma
UACC-257 melanoma = tested on: UACC-257 melanoma
HCC-2998 colon = tested on: HCC-2998 colon
SNB-75 CNS = tested on: SNB-75 CNS
K-562 leukemia = tested on: K-562 leukemia
NCI-H23 lung = tested on: NCI-H23 lung
MOLT-4 leukemia = tested on: MOLT-4 leukemia
HT29 colon = tested on: HT29 colon
SF-268 CNS = tested on: SF-268 CNS
SK-MEL-5 melanoma = tested on: SK-MEL-5 melanoma
LOX IMVI melanoma = tested on: LOX IMVI melanoma
A498 renal = tested on: A498 renal
RXF 393 renal = tested on: RXF 393 renal
CAKI-1 renal = tested on: CAKI-1 renal
A549 NSCLC = tested on: A549 NSCLC
NCI/ADR-RES ovarian = tested on: NCI/ADR-RES ovarian
M14 melanoma = tested on: M14 melanoma

What does the source list for `C#Cc1nc(/C=C/C(=O)c2nccn2C)cs1`?
GI50 (EKVX NSCLC): 964 nM; TGI (EKVX NSCLC): 1960 nM; GI50 (SR leukemia): 125 nM; TGI (SR leukemia): 471 nM; GI50 (SF-539 CNS): 748 nM; TGI (SF-539 CNS): 1470 nM; GI50 (MDA-MB-231 breast): 708 nM; TGI (MDA-MB-231 breast): 1500 nM; GI50 (RPMI-8226 leukemia): 205 nM; TGI (RPMI-8226 leukemia): 894 nM; GI50 (HS 578T breast): 1040 nM; TGI (HS 578T breast): 3130 nM; GI50 (SK-MEL-2 melanoma): 909 nM; TGI (SK-MEL-2 melanoma): 2060 nM; GI50 (NCI-H522 lung): 566 nM; TGI (NCI-H522 lung): 1370 nM; GI50 (UO-31 renal): 132 nM; TGI (UO-31 renal): 355 nM; GI50 (OVCAR-4 ovarian): 1000 nM; TGI (OVCAR-4 ovarian): 2340 nM; GI50 (MDA-MB-435): 976 nM; TGI (MDA-MB-435): 2820 nM; GI50 (PC-3 prostate): 778 nM; TGI (PC-3 prostate): 1690 nM; GI50 (SK-MEL-28 melanoma): 915 nM; TGI (SK-MEL-28 melanoma): 2040 nM; GI50 (UACC-257 melanoma): 732 nM; TGI (UACC-257 melanoma): 1610 nM; GI50 (HCC-2998 colon): 880 nM; TGI (HCC-2998 colon): 1620 nM; GI50 (SNB-75 CNS): 668 nM; TGI (SNB-75 CNS): 1360 nM; GI50 (K-562 leukemia): 377 nM; TGI (K-562 leukemia): 2260 nM; GI50 (NCI-H23 lung): 798 nM; TGI (NCI-H23 lung): 1720 nM; GI50 (MOLT-4 leukemia): 859 nM; TGI (MOLT-4 leukemia): 2500 nM; GI50 (HT29 colon): 837 nM; TGI (HT29 colon): 1700 nM; GI50 (SF-268 CNS): 813 nM; TGI (SF-268 CNS): 1830 nM; GI50 (SK-MEL-5 melanoma): 1040 nM; TGI (SK-MEL-5 melanoma): 2320 nM; GI50 (LOX IMVI melanoma): 22.9 nM; TGI (LOX IMVI melanoma): 49.9 nM; GI50 (A498 renal): 780 nM; TGI (A498 renal): 1520 nM; GI50 (RXF 393 renal): 502 nM; TGI (RXF 393 renal): 1390 nM; GI50 (CAKI-1 renal): 735 nM; TGI (CAKI-1 renal): 1480 nM; GI50 (A549 NSCLC): 1110 nM; TGI (A549 NSCLC): 3060 nM; GI50 (NCI/ADR-RES ovarian): 723 nM; TGI (NCI/ADR-RES ovarian): 2700 nM; GI50 (M14 melanoma): 845 nM
